Results published in ChEMBL document CHEMBL1201862, “PubChem BioAssay data set” (2004).
Active and inactive are the calls of the source.

Columns and labels:
[1] = biological target: T1, Small ubiquitin-related modifier 1 (Homo sapiens, UniProt P63165); assay: inhibitors of SUMO1 peptide binding, dose response, biochemical, fluorescence polarization, uHTS hits (AID 624382); format: functional; details: read-out: IC50_Mean
[2] = biological target: T1, Small ubiquitin-related modifier 1; assay: inhibitors of SUMO1 partner interactions, dose response, biochemical, FRET (AID 624383); format: functional; details: read-out: IC50_Mean
[3] = Counterscreen for activators of the function of SWI/SNF related, matrix associated, actin dependent regulator of chromatin, subfamily a, member 2 (SMARCA2, BRM): Luminescence-based cell-based high throughput dose response assay to identify non-selective compounds using the VP16 reporter assay.; format: functional
[4] = biological target: SWI/SNF-related matrix-associated actin-dependent regulator of chromatin subfamily A member 2 (Homo sapiens, UniProt P51531); assay: Luminescence-based cell-based high throughput dose response assay to identify activators of the function of SWI/SNF related, matrix associated, actin dependent regulator of chromatin, subfamily a, member 2 (SMARCA2, BRM).; format: functional
Chain of SWI/SNF-related matrix-associated actin-dependent regulator of chromatin subfamily A member 2 (P51531 whole entry): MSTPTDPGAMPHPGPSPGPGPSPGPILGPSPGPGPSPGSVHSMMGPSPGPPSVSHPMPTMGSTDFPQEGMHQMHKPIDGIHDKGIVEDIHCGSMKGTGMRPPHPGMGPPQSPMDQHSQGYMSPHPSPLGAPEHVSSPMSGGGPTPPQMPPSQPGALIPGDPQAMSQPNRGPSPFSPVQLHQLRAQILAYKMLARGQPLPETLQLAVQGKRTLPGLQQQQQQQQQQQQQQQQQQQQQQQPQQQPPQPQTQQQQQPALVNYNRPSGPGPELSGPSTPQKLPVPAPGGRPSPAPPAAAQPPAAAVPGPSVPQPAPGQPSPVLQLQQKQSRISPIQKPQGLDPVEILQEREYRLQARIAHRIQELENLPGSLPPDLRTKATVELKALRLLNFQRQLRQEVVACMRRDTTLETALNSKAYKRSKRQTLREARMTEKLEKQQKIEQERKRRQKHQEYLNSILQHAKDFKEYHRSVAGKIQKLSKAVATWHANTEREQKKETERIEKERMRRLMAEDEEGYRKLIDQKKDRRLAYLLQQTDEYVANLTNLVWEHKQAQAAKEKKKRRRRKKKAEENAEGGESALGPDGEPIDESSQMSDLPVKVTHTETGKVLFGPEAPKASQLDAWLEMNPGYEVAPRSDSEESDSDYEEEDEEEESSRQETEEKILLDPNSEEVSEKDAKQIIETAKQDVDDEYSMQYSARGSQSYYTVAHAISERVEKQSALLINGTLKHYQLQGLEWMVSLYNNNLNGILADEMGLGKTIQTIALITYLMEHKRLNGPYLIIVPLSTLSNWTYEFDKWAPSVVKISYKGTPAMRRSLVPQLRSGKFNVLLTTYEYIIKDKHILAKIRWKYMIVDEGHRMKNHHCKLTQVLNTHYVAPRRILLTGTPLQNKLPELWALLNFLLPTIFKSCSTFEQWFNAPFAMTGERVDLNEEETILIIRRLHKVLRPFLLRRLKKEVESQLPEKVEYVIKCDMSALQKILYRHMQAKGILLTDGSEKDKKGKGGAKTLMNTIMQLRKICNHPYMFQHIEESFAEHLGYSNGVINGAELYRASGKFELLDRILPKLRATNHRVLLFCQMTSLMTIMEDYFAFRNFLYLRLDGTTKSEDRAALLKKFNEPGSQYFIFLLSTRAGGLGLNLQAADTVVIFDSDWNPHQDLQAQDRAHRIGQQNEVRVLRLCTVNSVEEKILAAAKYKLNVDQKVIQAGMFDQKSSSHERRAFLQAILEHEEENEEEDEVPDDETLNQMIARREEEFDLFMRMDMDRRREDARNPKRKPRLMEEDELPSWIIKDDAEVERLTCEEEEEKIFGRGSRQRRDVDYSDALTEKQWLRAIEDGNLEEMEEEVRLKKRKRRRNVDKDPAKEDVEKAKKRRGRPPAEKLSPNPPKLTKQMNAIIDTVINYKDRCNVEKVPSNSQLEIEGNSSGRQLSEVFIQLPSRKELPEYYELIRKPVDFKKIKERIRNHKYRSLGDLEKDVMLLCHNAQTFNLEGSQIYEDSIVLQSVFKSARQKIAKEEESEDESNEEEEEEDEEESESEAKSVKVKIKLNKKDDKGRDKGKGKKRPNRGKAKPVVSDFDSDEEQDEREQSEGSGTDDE

[5] = biological target: T2, Sentrin-specific protease 8 (Homo sapiens, UniProt Q96LD8); format: functional
T2 sequence (Q96LD8 whole entry): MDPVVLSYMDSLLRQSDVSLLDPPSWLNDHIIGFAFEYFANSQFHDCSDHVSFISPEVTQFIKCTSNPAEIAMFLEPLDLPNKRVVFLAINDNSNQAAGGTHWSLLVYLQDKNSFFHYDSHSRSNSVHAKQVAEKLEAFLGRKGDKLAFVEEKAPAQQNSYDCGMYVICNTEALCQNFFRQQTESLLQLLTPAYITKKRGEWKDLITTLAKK

Caspase-3 = biological target: T3, Caspase-3 (Homo sapiens, UniProt P42574); assay: Dose-response confirmation of uHTS inhibitor hits of Sentrin-Specific Protease 8 in a Caspase-3 Fluorescence assay.; format: functional
T3 sequence (P42574 whole entry): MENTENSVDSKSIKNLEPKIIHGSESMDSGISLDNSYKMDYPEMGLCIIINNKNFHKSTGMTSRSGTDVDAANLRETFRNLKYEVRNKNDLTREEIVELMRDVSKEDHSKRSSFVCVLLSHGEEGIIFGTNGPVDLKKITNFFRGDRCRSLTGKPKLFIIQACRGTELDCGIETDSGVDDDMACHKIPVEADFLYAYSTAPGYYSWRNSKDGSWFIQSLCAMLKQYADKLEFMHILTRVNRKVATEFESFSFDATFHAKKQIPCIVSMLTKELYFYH

[6] = biological target: T2, Sentrin-specific protease 8; format: functional; remark: listed apart in the source
Cryptococcus neoformans [7] = assay: PubChem AID 686997; format: functional, organism-based
[8] = HEK293 Cytotoxicity Assay Measured in Cell-Based System Using Plate Reader - 7071-01_Inhibitor_Dose_CherryPick_Activity_Set2.; format: functional
HeLa = assay: HeLa cell cytotoxicity, dose response, cytotoxicity control, ATP luminescence, cherry-pick samples (AID 687004); format: functional, cell-based
HEK293 = assay: HEK293T cell cytotoxicity, dose response, cytotoxicity control, ATP luminescence, cherry-pick samples (AID 687005); format: functional, cell-based; details: Homo sapiens;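 further: cells exposed to compound for 48 hours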
Cryptococcus neoformans [9] = assay: Cryptococcus growth inhibition by alamar blue – cell lysis, cherry-picks, replicate tests, mechanism study for C. neoformans antifungal project, dose response (AID 686999); format: functional, organism-based
[10] = HEK293 cell viability, dose response, counter-screen for EBV LMP1 inhibitor project, dry powder, set 2 (AID 624374); format: functional
Paired box protein Pax-8 = Paired box protein Pax-8 (Homo sapiens, UniProt Q06710); assay: inhibitors of PAX8-driven TPO luciferase reporter, dose response, RMG-I cells, cherry-pick (AID 687027); format: functional, cell-based;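 further: luciferase reporter driven by Pax8 target thyroperoxidase promoter measured by SteadyGlo luminescence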
Chain of Paired box protein Pax-8 (Q06710 whole entry): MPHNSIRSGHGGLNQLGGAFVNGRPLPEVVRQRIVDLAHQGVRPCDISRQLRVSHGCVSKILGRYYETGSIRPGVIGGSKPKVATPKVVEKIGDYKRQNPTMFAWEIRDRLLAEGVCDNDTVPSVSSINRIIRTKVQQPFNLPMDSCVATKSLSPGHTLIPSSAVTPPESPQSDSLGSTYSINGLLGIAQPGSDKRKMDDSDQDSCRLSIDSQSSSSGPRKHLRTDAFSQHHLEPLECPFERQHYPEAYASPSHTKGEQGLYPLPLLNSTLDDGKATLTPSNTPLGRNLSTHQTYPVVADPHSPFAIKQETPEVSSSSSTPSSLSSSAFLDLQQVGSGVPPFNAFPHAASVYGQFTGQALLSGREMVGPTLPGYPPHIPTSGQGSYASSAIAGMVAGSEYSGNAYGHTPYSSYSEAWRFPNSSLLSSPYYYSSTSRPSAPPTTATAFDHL

T1 sequence (P63165 whole entry): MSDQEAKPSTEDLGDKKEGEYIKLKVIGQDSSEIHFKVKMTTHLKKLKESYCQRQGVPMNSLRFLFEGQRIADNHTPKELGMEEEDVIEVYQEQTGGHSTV

Compound: CCn1c(SCC(=O)NC(=O)NCc2ccco2)nc2sc(C)c(C)c2c1=O
- IC50 [1]: > 66.6 µM (inactive)
- IC50 [2]: 21.9 µM (inactive)

Compound: COc1cccc(-c2cnc3c(NC=O)cc(-c4ccc(N5CCN(C)CC5)cc4)cn23)c1
- EC50 [3]: > 91.2 µM (inactive)
- EC50 [4]: > 10.1 µM (inactive)

Compound: O=C(NC1CCCCC1)C(c1ccnc2ccccc12)N1CCc2ccccc2C1 (centres undefined)
- IC50 [5]: 2.31 µM (active)
- IC50 (Caspase-3): 9.26 µM (active)
- IC50 [6]: 17.5 µM (active)

Compound: COC(=O)C1=C(C)N(CC(C)C)C(=S)NC1c1ccc(-c2ccccc2)cc1 (centres undefined)
- AC50 (Cryptococcus neoformans [7]): 23.6 µM (active)
- AC50 (Cryptococcus neoformans [7]; Cryptococcus neoformans): 15.6 µM (active)
- AC50 [8]: 20.4 µM (active)
- AC50 (HeLa): > 52 µM (inactive)
- AC50 (HeLa; Homo sapiens): 42 µM (active)
- AC50 (HEK293): 20.4 µM (active)
- AC50 (Cryptococcus neoformans [9]): 51.6 µM (active)

Compound: O=C(Cc1ccccn1)NCC[C@@H]1CC[C@H](NC(=O)Nc2ccc(Cl)cc2)[C@H](CO)O1
- AbsAC35 [10]: 154.48 µM

Compound: CC[C@H](C)[C@@H]1NC(=O)CNC(=O)c2csc(n2)[C@H](C(C)(C)O)OC(=O)C(C)(C)[C@H](CCCC(C)(Cl)Cl)OC(=O)c2csc1n2 [LYNGBYABELLIN A]
- AC50 (Paired box protein Pax-8): < 0.26 µM (active)
- AC50 (Cryptococcus neoformans [7]; Cryptococcus neoformans): 2.72 µM (active)
- AC50 (HeLa; Homo sapiens): < 0.195 µM (active)
- AC50 (Cryptococcus neoformans [9]): 2.1 µM (active)
